Data: patent US20260256792A1, “TREATMENT OF CHRONIC SPONTANEOUS URTICARIA BY ADMINISTERING (R)-2-[3-[4-AMINO-3-(2-FLUORO-4-PHENOXY-PHENYL)PYRAZOLO[3,4-D]PYRIMIDIN-1-YL]PIPERIDINE-1-CARBONYL]-4-METHYL-4-[4-(OXETAN-3-YL)PIPERAZIN-1-YL]PENT-2-ENENITRILE” (priority 2023, published 2026)

Tested on: angioedema in CSU patients
Assay: Phase 2 CSU study: angioedema activity score over 7 days (AAS7)
Assay type: in vivo, human
Conditions: 400 mg TID; for AAS7 = 0, OR (95% CI) for rilzabrutinib vs. placebo / AAS7 = 0, RRD (%) for rilzabrutinib vs. placebo (95% CI) / AAS7 Post-baseline Mean (SD) / Participants with AAS7 = 0, Responder n (%) / AAS7 % Change difference for rilzabrutinib vs. placebo LS Mean (95% CI) / AAS7 Change difference for rilzabrutinib vs. placebo LS Mean (95% CI) / AAS7 Change from baseline LS Mean (SE) / AAS7 % Change from baseline LS Mean (SE) / AAS7 = 0, Non-responder n (%): angioedema at baseline; for Non-responder n (%), AAS7 = 0 / OR (95% CI) for rilzabrutinib vs. placebo, AAS7 = 0 / RRD (%) for rilzabrutinib vs. placebo (95% CI), AAS7 = 0 / Responder n (%), AAS7 = 0: outlier removed
Excerpt: The study comprises a 12 week, randomized, double-blind, placebo-controlled, multi-center, dose-ranging efficacy and safety phase, followed by a 40 week open label extension (OLE) phase (see FIG. 1). The study consists of three phases and an optional OLE phase. […] The weekly angioedema activity score (AAS7) was proposed as a tertiary endpoint. […] Patients were to complete the AAS using the e-diary. The e-diary was to be used once daily on the same time of each day recording of participant's answers to the angioedema activity score over 7 days (AAS7) questionnaire.

## CC(C)(C=C(C#N)C(=O)N1CCC[C@@H](n2nc(-c3ccc(Oc4ccccc4)cc3F)c3c(N)ncnc32)C1)N1CCN(C2COC2)CC1 [rilzabrutinib, (R)-2-[3-[4-amino-3-(2-fluoro-4-phenoxy-phenyl)pyrazolo[3,4-d]pyrimidin-1-yl]piperidine-1-carbonyl]-4-methyl-4-[4-(oxetan-3-yl)piperazin-1-yl]pent-2-enenitrile]
Week 8, omalizumab-naïve
  AAS7 = 0, OR (95% CI) for rilzabrutinib vs. placebo: 0.690
  AAS7 = 0, RRD (%) for rilzabrutinib vs. placebo (95% CI): −6.2 %
  AAS7 Post-baseline Mean (SD): 12.20 (13.05)
  Participants with AAS7 = 0, Responder n (%): 6 (26.1) n (%)
Week 9, ITT
  AAS7 % Change difference for rilzabrutinib vs. placebo LS Mean (95% CI): −34.54 (−64.85, −4.23) %
  AAS7 Change difference for rilzabrutinib vs. placebo LS Mean (95% CI): −13.12 (−23.93, −2.31)
  AAS7 Change from baseline LS Mean (SE): −42.57 (4.09)
  AAS7 Post-baseline Mean (SD): 7.98 (11.59)
Week 9, omalizumab-naïve
  Non-responder n (%), AAS7 = 0: 15 (44.1) n (%)
  OR (95% CI) for rilzabrutinib vs. placebo, AAS7 = 0: 1.155
  RRD (%) for rilzabrutinib vs. placebo (95% CI), AAS7 = 0: 3.6 %
  Responder n (%), AAS7 = 0: 19 (55.9) n (%)
  AAS7 % Change difference for rilzabrutinib vs. placebo LS Mean (95% CI): −37.56 (−71.28, −3.83) %
  AAS7 % Change from baseline LS Mean (SE): −84.73 (12.57) %
  AAS7 = 0, Non-responder n (%): 13 (56.5) n (%)
  AAS7 = 0, OR (95% CI) for rilzabrutinib vs. placebo: 1.358
  AAS7 = 0, RRD (%) for rilzabrutinib vs. placebo (95% CI): 6.9 %
  AAS7 Post-baseline Mean (SD): 8.52 (12.19)
  Participants with AAS7 = 0, Responder n (%): 10 (43.5) n (%)
Week 10, ITT
  AAS7 % Change difference for rilzabrutinib vs. placebo LS Mean (95% CI): −38.35 (−79.56, 2.86) %
  AAS7 % Change from baseline LS Mean (SE): −87.33 (15.54) %
  AAS7 Change difference for rilzabrutinib vs. placebo LS Mean (95% CI): −13.07 (−24.96, −1.18)
  AAS7 Change from baseline LS Mean (SE): −43.40 (4.49)
  AAS7 Post-baseline Mean (SD): 7.10 (9.58)
Week 10, omalizumab-naïve
  Non-responder n (%), AAS7 = 0: 16 (47.1) n (%)
  RRD (%) for rilzabrutinib vs. placebo (95% CI), AAS7 = 0: 6.0 %
  Responder n (%), AAS7 = 0: 18 (52.9) n (%)
  AAS7 % Change from baseline LS Mean (SE): −89.99 (16.85) %
  AAS7 = 0, Non-responder n (%): 13 (56.5) n (%)
  AAS7 = 0, OR (95% CI) for rilzabrutinib vs. placebo: 1.627
  AAS7 = 0, RRD (%) for rilzabrutinib vs. placebo (95% CI): 11.0 %
  AAS7 Post-baseline Mean (SD): 6.83 (9.73)
  Participants with AAS7 = 0, Responder n (%): 10 (43.5) n (%)
Week 11, ITT
  AAS7 % Change difference for rilzabrutinib vs. placebo LS Mean (95% CI): −15.53 (−43.68, 12.62) %
  AAS7 Change difference for rilzabrutinib vs. placebo LS Mean (95% CI): −6.88 (−18.42, 4.67)
  AAS7 Change from baseline LS Mean (SE): −40.74 (4.34)
  AAS7 Post-baseline Mean (SD): 9.40 (13.36)
Week 11, omalizumab-naïve
  Non-responder n (%), AAS7 = 0: 15 (44.1) n (%)
  OR (95% CI) for rilzabrutinib vs. placebo, AAS7 = 0: 1.142
  RRD (%) for rilzabrutinib vs. placebo (95% CI), AAS7 = 0: 3.1 %
  Responder n (%), AAS7 = 0: 19 (55.9) n (%)
  AAS7 = 0, Non-responder n (%): 13 (56.5) n (%)
  AAS7 = 0, OR (95% CI) for rilzabrutinib vs. placebo: 1.160
  AAS7 = 0, RRD (%) for rilzabrutinib vs. placebo (95% CI): 3.1 %
  AAS7 Post-baseline Mean (SD): 9.80 (13.81)
  Participants with AAS7 = 0, Responder n (%): 10 (43.5) n (%)
Week 12, ITT
  AAS7 % Change difference for rilzabrutinib vs. placebo LS Mean (95% CI): −19.84 (−46.44, 6.76) %
  AAS7 % Change from baseline LS Mean (SE): −82.82 (10.03) %
  AAS7 Change difference for rilzabrutinib vs. placebo LS Mean (95% CI): −8.06 (−19.05, 2.94)
  AAS7 Change from baseline LS Mean (SE): −43.36 (4.14)
  AAS7 Post-baseline Mean (SD): 7.37 (12.64)
Week 12, omalizumab-naïve
  patients with angioedema score (AAS7) of 0: 60.9%
  Non-responder n (%), AAS7 = 0: 12 (35.3) n (%)
  OR (95% CI) for rilzabrutinib vs. placebo, AAS7 = 0: 1.685
  RRD (%) for rilzabrutinib vs. placebo (95% CI), AAS7 = 0: 13.0 %
  Responder n (%), AAS7 = 0: 22 (64.7) n (%)
  AAS7 = 0, Non-responder n (%): 9 (39.1) n (%)
  AAS7 = 0, OR (95% CI) for rilzabrutinib vs. placebo: 3.085
  AAS7 = 0, RRD (%) for rilzabrutinib vs. placebo (95% CI): 29.7 %
